Where two headings read alike, the source gives them in different places.
How the values were obtained:
[1] = system: influenza A virus strain A/WSN/33 (H1N1); assay: microbe, parasite or virus in culture; format: cell-based; conditions: for EC50: Influenza A virus, MDCK, 48 h
MDCK cells = assay: Cytotoxicity assay (WST-8) with no viral infection; conditions: 300 μg/mL, uninfected MDCK cells, Figure 3
influenza virus = format: cell-based; conditions: 5 μg/mL, influenza virus-infected MDCK cells, data not shown

SMILES	Effect on cell survival rate of virus-infected cells (effective / ineffective) [1]	EC50 [1] [µM]	also measured
O=C(/C=C/c1ccc(O)c(O)c1)O[C@@H]1C[C@](O)(C(=O)O)C[C@@H](OC(=O)/C=C/c2ccc(O)c(O)c2)[C@H]1OC(=O)/C=C/c1ccc(O)c(O)c1 [3,4,5-Tricaffeoylquinic acid, 3,4,5-tricaffeoylquinic acid]	effective	115	Cell survival rate of infected cells at 300 μg/mL [1]: dropped to nearly zero; Effect on cell survival of infected cells at 100 μg/mL [1]: effective
O=C(/C=C/c1ccc(O)c(O)c1)O[C@@H]1[C@H](O)C[C@@](O)(C(=O)O)C[C@H]1OC(=O)/C=C/c1ccc(O)c(O)c1 [3,4-Dicaffeoylquinic acid]	effective	81.1 ± 2.9	EC50 ([1]; read-out: EC50 value on the cell survival): 41.9 µg/mL
O=C(/C=C/c1ccc(O)c(O)c1)O[C@@H]1C[C@](O)(C(=O)O)C[C@@H](OC(=O)/C=C/c2ccc(O)c(O)c2)[C@H]1O [3,5-Dicaffeoylquinic acid, 3,5-dicaffeoylquinic acid]	effective	208	–
O=C(/C=C/c1ccc(O)c(O)c1)O[C@H]1[C@H](O)C[C@](O)(C(=O)O)C[C@H]1OC(=O)/C=C/c1ccc(O)c(O)c1 [4,5-Dicaffeoylquinic acid, 4,5-dicaffeoylquinic acid]	effective	281	–
O=C(O)/C=C/c1ccc(O)c(O)c1 [Caffeic acid, caffeic acid]	effective	191	Cell toxicity (MDCK cells): exhibited cell toxicities; Cell survival rate of infected cells at 300 μg/mL [1]: dropped to nearly zero; Effect on cell survival of infected cells at 100 μg/mL [1]: effective
O=C(/C=C/c1ccc(O)c(O)c1)O[C@@H]1C[C@](O)(C(=O)O)C[C@@H](O)[C@H]1O [Chlorogenic acid]	effective	342	Cell toxicity (MDCK cells): exhibited cell toxicities; Cell survival rate of infected cells at 300 μg/mL [1]: dropped to nearly zero; Effect on cell survival of infected cells at 100 μg/mL [1]: effective
O=C(O)[C@]1(O)C[C@@H](O)[C@@H](O)[C@H](O)C1 [Quinic acid, quinic acid]	ineffective	> 1560	–
CC(C)=CCc1cc(/C=C/C(=O)O)cc(CC=C(C)C)c1O [artepillin C]	did not have any cell surviving activity	–	–
CC(C)=CCc1cc(/C=C/C(=O)O)ccc1O [drupanin]	did not have any cell surviving activity	–	–
COc1ccc(-c2oc3cc(O)cc(O)c3c(=O)c2O)cc1 [kemferide]	did not have any cell surviving activity	–	–
O=C(O)/C=C/c1ccc(O)cc1 [p-coumaric acid]	did not have any cell surviving activity	–	–
NC(=O)c1ncn([C@@H]2O[C@H](CO)[C@@H](O)[C@H]2O)n1 [ribavirin]	–	–	Quantity of mRNA for HA relative to mRNA for GAPDH (influenza virus): less than 10%
